# How the values were obtained:
# [1] = test system: MDR leukemia cancer cell (CEM VLB); assay: DNR accumulation and MDR reversal in a single cell, DEP-based microfluidic chip (Chip IV), fluorescence measurement; conditions: DNR 35 μM, before CsA was delivered, 100-200 s, 35° C.
# Protocol: Furthermore, DEP conditions were optimized to move a single multidrug resistant cancer cell 43 during fluorescence measurement using Chip TV (FIG. 20). Cell 43 was transferred out of fluorescent detection window 47 and back into detection window 47 by switching the voltage between electrodes AB and electrodes BC. When cell 43 was moved out of detection window 47, only the background (Fbackground) was measured. When cell 43 was moved back into detection window 47, the total fluorescence (Ftotal) was measured. By background correction, the absolute fluorescence of cell 43 (Fcell=Ftotal−Fbackground) was obtained. At the same time, a chemo-therapeutic drug, daunorubicin (DNR) was delivered to cell retention region 30 via solution reservoir 18B and microchannel 20B. The uptake of DNR inside a single MDR cancer cell 43 (CEM VLB) was monitored. The measurement results are depicted in FIG. 20b, showing many cycles of cell fluorescence (peaks) and troughs (background). […]
# After DEP-based single cell chip 10 (Chip IV, FIG. 20) was used to move leukemia cancer cell 43 into and out of detection window 47 during fluorescence measurement for anticancer drug (for example, daunorubicin (DNR)) accumulation inside cell 43, chip 10 was further used for MDR reversal studies at an elevated temperature (35° C.). […]
# CEM VLB cell = assay: DNR accumulation in a single adhered cell, SASCA method (chip without DEP electrodes), fluorescence measurement; type: cell-based; conditions: chip translated, α-MEM medium
# Protocol: (b) The fluorescent measurement of the adhered cell when the chip was translated into the measurement window (the peak provides the total fluorescence) and out of the measurement window (the baseline provides the background).
# The SASCA method was performed for comparison with the DEP-based method. The SASCA method was performed in a chip without DEP electrodes. Cell 43 was moved into and out detection window 47 and at the same time DNR was delivered to cell retention region 30 (FIG. 21). In the SASCA method, cell movement was achieved by moving the chip with cell 43 which adheres to the bottom surface of cell retention region 30 in the chip.
smiles,measurement,setting,value
"COc1cccc2c1C(=O)c1c(O)c3c(c(O)c1C2=O)C[C@@](O)(C(C)=O)C[C@@H]3O[C@H]1C[C@H](N)[C@H](O)[C@H](C)O1 [DNR, daunorubicin]","DNR accumulation in cell (cell fluorescence, peaks minus troughs)",[1],very little DNR accumulation
same,DNR accumulation in cell (fluorescence of cell over measurement time),CEM VLB cell,accumulated inside the cell
